Data from patent US20240391889A1, “ANTIMICROBIAL COMPOUNDS AND THE METHODS OF USE” (priority 2021, published 2024).
≈ marks a conversion by molar mass, not a printed value. Read-outs that look alike come from different tables or passages of the source. Numbered stars: 1 amine (or outer) side, 2 acyl side, 3 side chain; on linkers, the order of the positions; unused ones are H or OH. Square brackets hold non-standard residues; d marks the D form. Peptide text beside a SMILES is read from it. * marks the point of attachment. N(1S-cyclohexylethyl)Gly = C[C@H](NCC(=O)O)C1CCCCC1; N(3-imidazol-1-ylpropyl)Gly = O=C(O)CNCCCn1ccnc1; N(2-thienylmethyl)Gly = O=C(O)CNCc1cccs1; NCyclohexylmethylGly = O=C(O)CNCC1CCCCC1; N(tridecyl)Gly = CCCCCCCCCCCCCNCC(=O)O; X2 = O=C(CN(c1cccc2ccccc12)[*:1])[*:2]; N(4-MeOBn)Gly = COc1ccc(CNCC(=O)O)cc1; N(4-F-Bzl)Gly = O=C(O)CNCc1ccc(F)cc1; X1 = CC(c1ccccc1)N(CC(=O)[*:2])[*:1]; Gly(N-2-aminoethyl) = NCCNCC(=O)O; Myristoyl = CCCCCCCCCCCCCC(=O)*; NFurfurylGly = O=C(O)CNCc1ccco1; Gly(N(CH2)3NH2) = NCCCNCC(=O)O; Nphe = O=C(O)CNCc1ccccc1; NPrGly = CCCNCC(=O)O; Nlys = NCCCCNCC(=O)O

Legend:
[1] = system: C. neoformans; type: cell-based, Cryptococcus neoformans; conditions: 72 h
Description: (§1) This screening led to the discovery of RMG9-11 (FIG. 2C). The minimum inhibitory concentration (MIC) of resynthesized RMG9-11 was initially determined against C. albicans, C. neoformans, and the ESKAPE bacteria via CSLI guidelines (CLSI. Methods for Dilution Antimicrobial Susceptibility Tests for Bacteria That Grow Aerobically, 11th Edition. Clinical and Laboratory Standards Institute (2018); CLSI. Reference method for broth dilution antifungal susceptibility testing of yeasts; approved standard-third edition; CLSI document M27-A3. Clinical and Laboratory Standards Institute (2008)). […] C. albicans clinical isolates include a reference strain (M1), fluconazole susceptible strains (M4 and M6), and fluconazole resistant strains (M2, M3, M5, and M7). ATCC 64124 is multidrug resistant C. albicans strain that is resistant to amphotericin B, fluconazole, caspofungin, and flucytosine. All MICs were performed under CSLI guidelines in triplicate on at least three different days.
(§2) The minimum inhibitory concentration (MIC) of peptoids against fungal pathogens C. albicans and C. neoformans was determined following CLSI guidelines (Reference method for broth dilution antifungal susceptibility testing of yeasts; approved standard-third edition; CLSI document M27-A3.” CLSI. 2008.). Colonies were transferred from a streaked YPD plate to 0.85% saline to reach an OD530 between 0.18 and 0.25. This inoculant was diluted 1:100 into RPMI-MOPS and then further diluted 1:20 into RPMI-MOPS. 198 μL of inoculant was seeded into each well of a 96 well black-walled plate. 2-fold serial dilutions of 100× peptoid solutions were prepared in water and 2 μL of peptoid were added to each well in triplicate. […] MIC was defined as the lowest concentration of compound preventing fungal growth. This assay was repeated 3 times on separate days with each compound.

[2] = in vitro; type: cell-based; conditions: human, HepG2 hepatocellular carcinoma cells
Description: (§3) The mammalian cell lines that were tested (HepG2, 3T3, and HaCat) were incubated with RMG9-11 for 72 hours and cell viability was determined via mitochondrial activity using an MTT reduction assay where viable cells reduce MTT to formazan. Toxicity is reported as the concentration of the peptoid that results in a 50% reduction in viable cells, termed toxicity dose 50% or TD50. […] SR is defined as the TD50 divided by MIC and provides a measure of the therapeutic window for a compound. Typically for most lead compounds that would continue through development and optimization, a SR of 10 is preferred while an SR of 100 is more desirable for a compound moving into preclinical animal model evaluation.
(§4) Hepatocellular carcinoma (HepG2), mouse fibroblast (3T3), and human keratinocyte (HaCat) cells were cultured in Dulbeco modified eagle media (DMEM) containing 10% fetal bovine serum (FBS) and 1% penicillin, streptomycin, and glutamine (PSG) at 37° C. and 5% CO2. Cells were collected and adjusted to […] to 4×10^5 cells/mL in phenol-red free DMEM and plated (100 μL) 96 well plates. 2-fold serial dilutions of 10× peptoid (11.1 μL) were added to each well in triplicate. Water (vehicle) was used as a negative control. Plates were incubated at 37° C. in 5% CO2 for 72 hours. Thiazolyl blue tetrazolium bromide (MTT) was added to each well (5 mg/mL; 20 μL) and incubated for 3 hours. Media was removed, DMSO (100 μL) was added, and plates were incubated at 37° C. for 10 minutes. Plates were read on a SPECTRAMAX M5 plate reader (Abs. 570 nm). The concentration of compound resulting in a 50% reduction in growth compared to control (toxicity dose 50%; TD50) was determined using GRAFIT. This procedure was repeated three times on separate days.

[3] = system: HepG2 liver cells; test: in vitro; type: cell-based
Description: as §3, §4

[4] = system: C. albicans; type: cell-based, Candida albicans; conditions: 24 h
Description: as §1, §2

[5] = Percent acetonitrile at time of elution from RP-HPLC (hydrophobicity); type: physicochemical
Description: Round 1 of the iterative SAR explored two miscellaneous derivatives along with derivatives that explored substitutions in position 3 (R^2; FIG. 6). Structures were confirmed by ESI-MS and hydrophobicity was determined by the percent acetonitrile at time of elution during RP-HPLC purification and using MarvinSketch to calculate the distribution coefficient at pH 7.4 (Table 5). Only one derivative of position 1 (group T of Formula 1) was explored, substituting a 14-carbon fatty acid (myristic acid) tail in place of the tridecyl tail (911-M1). This was tested because this fatty acid was previously shown to improve activity with C. albicans while reducing toxicity (Green R M, Bicker R. L. Evaluation of peptoid mimics of short, lipophilic peptide antimicrobials. Int J Antimicrob Agents. 2020; 56(2):106048. doi:10.1016/j.ijantimicag.2020.106048). The second miscellaneous derivative tested substituting the propyl group (Nnva) in position 2 (R^1) with a cationic group in an effort to reduce toxicity without effecting antifungal activity (911-M2). […]

Row | Structure (SMILES) | MIC C. neoformans [1] [µg/mL] | CC50 at 72 h [2] [µg/mL] | HepG2 TD50 [3] [µg/mL] | cytotoxicity compared to RMG9-11 [3] | MIC C. albicans [4] [µg/mL] | MIC C. neoformans ([1]; listed as 911-10) | % ACN [5] [%] | toxicity compared to 911-M1 [3]
1 | CCCCCCCCCCCCCC(=O)NCC(=O)N(CCC)CC(=O)N(CC(=O)N(CCCCN)CC(=O)N(CC(=O)N(CC(=O)N(CCCN)CC(N)=O)Cc1ccccc1)Cc1ccco1)C(C)c1ccccc1 (stereo not drawn) [Compound 911-M1] (Myristoyl-G[NPrGly][X1][Nlys][NFurfurylGly][Nphe][Gly(N(CH2)3NH2)]-NH2) | 3.13 (≈ 2.92 µM) | 144 ± 22.6 (≈ 135 µM) | 144.5 ± 22.6 | decreased cytotoxicity | 3.13 to 6.25 | – | – | –
2 | CCCCCCCCCCCCCNCC(=O)N(CCN)CC(=O)N(CC(=O)N(CCCCN)CC(=O)N(CC(=O)N(CC(=O)N(CCCN)CC(N)=O)Cc1ccccc1)Cc1ccco1)C(C)c1ccccc1 (stereo not drawn) [Compound 911-M2] (H-[N(tridecyl)Gly][Gly(N-2-aminoethyl)][X1][Nlys][NFurfurylGly][Nphe][Gly(N(CH2)3NH2)]-NH2) | 3.13 (≈ 3 µM) | 177 ± 20.5 (≈ 170 µM) | – | dramatic decrease in cytotoxicity | 6.25 to 12.5 | – | – | –
3 | CCCCCCCCCCCCCNCC(=O)N(CCC)CC(=O)N(CC(=O)N(CCCCN)CC(=O)N(CC(=O)N(CC(=O)N(CCCN)CC(N)=O)Cc1ccccc1)Cc1ccco1)CC1CCCCC1 [Compound 911-M10] (H-[N(tridecyl)Gly][NPrGly][NCyclohexylmethylGly][Nlys][NFurfurylGly][Nphe][Gly(N(CH2)3NH2)]-NH2; N-terminus assumed) | 0.78 to 1.56 | 97.8 ± 18.3 (≈ 94.5 µM) | – | – | 6.25 (≈ 6.04 µM) | sub-one | 72.3 | –
4 | CCCCCCCCCCCCCC(=O)NCC(=O)N(CCC)CC(=O)N(CC(=O)N(CCCCN)CC(=O)N(CC(=O)N(CCCn1ccnc1)CC(=O)N(CCCN)CC(N)=O)Cc1ccco1)C(C)c1ccccc1 (stereo not drawn) [Compound 911-M14] (Myristoyl-G[NPrGly][X1][Nlys][NFurfurylGly][N(3-imidazol-1-ylpropyl)Gly][Gly(N(CH2)3NH2)]-NH2) | 6.25 to 12.5 | > 200 | – | – | 25 (≈ 22.9 µM) | – | – | –
5 | CCCCCCCCCCCCCC(=O)NCC(=O)N(CCC)CC(=O)N(CC(=O)N(CCCCN)CC(=O)N(CC(=O)N(CC(=O)N(CCCN)CC(N)=O)c1cccc2ccccc12)Cc1ccco1)C(C)c1ccccc1 (stereo not drawn) [Compound 911-M15] (Myristoyl-G[NPrGly][X1][Nlys][NFurfurylGly][X2][Gly(N(CH2)3NH2)]-NH2) | 3.13 to 6.25 | 122 ± 21.3 (≈ 111 µM) | – | – | 6.25 (≈ 5.64 µM) | – | – | –
6 | CCCCCCCCCCCCCC(=O)NCC(=O)N(CCC)CC(=O)N(CC(=O)N(CCCCN)CC(=O)N(CC(=O)N(CC(=O)N(CCCN)CC(N)=O)Cc1ccc(OC)cc1)Cc1ccco1)C(C)c1ccccc1 (stereo not drawn) [Compound 911-M16] (Myristoyl-G[NPrGly][X1][Nlys][NFurfurylGly][N(4-MeOBn)Gly][Gly(N(CH2)3NH2)]-NH2) | 3.13 to 6.25 | 136 ± 39.6 (≈ 123 µM) | – | – | 6.25 (≈ 5.67 µM) | – | – | –
7 | CCCCCCCCCCCCCC(=O)NCC(=O)N(CCC)CC(=O)N(CC(=O)N(CCCCN)CC(=O)N(CC(=O)N(CC(=O)N(CCCN)CC(N)=O)[C@@H](C)C1CCCCC1)Cc1ccco1)C(C)c1ccccc1 (stereo partly drawn) [Compound 911-M17] (Myristoyl-G[NPrGly][X1][Nlys][NFurfurylGly][N(1S-cyclohexylethyl)Gly][Gly(N(CH2)3NH2)]-NH2) | 3.13 to 6.25 | 81.6 ± 5.97 (≈ 74.8 µM) | – | – | 6.25 (≈ 5.73 µM) | – | – | markedly more toxic
8 | CCCCCCCCCCCCCC(=O)NCC(=O)N(CCC)CC(=O)N(CC(=O)N(CCCCN)CC(=O)N(CC(=O)N(CC(=O)N(CCCN)CC(N)=O)Cc1ccco1)Cc1ccco1)C(C)c1ccccc1 (stereo not drawn) [Compound 911-M18] (Myristoyl-G[NPrGly][X1][Nlys][NFurfurylGly][NFurfurylGly][Gly(N(CH2)3NH2)]-NH2) | 6.25 (≈ 5.89 µM) | 152 ± 8.04 (≈ 143 µM) | 151.96 ± 8.04 | – | 6.25 (≈ 5.89 µM) | – | – | slightly though not significantly better
9 | CCCCCCCCCCCCCC(=O)NCC(=O)N(CCC)CC(=O)N(CC(=O)N(CCCCN)CC(=O)N(CC(=O)N(CC(=O)N(CCCN)CC(N)=O)Cc1ccc(F)cc1)Cc1ccco1)C(C)c1ccccc1 (stereo not drawn) [Compound 911-M19] (Myristoyl-G[NPrGly][X1][Nlys][NFurfurylGly][N(4-F-Bzl)Gly][Gly(N(CH2)3NH2)]-NH2) | 3.13 (≈ 2.87 µM) | 106 ± 34.8 (≈ 97.6 µM) | – | – | 6.25 (≈ 5.74 µM) | – | – | –
10 | CCCCCCCCCCCCCC(=O)NCC(=O)N(CCC)CC(=O)N(CC(=O)N(CCCCN)CC(=O)N(CC(=O)N(CC(=O)N(CCCN)CC(N)=O)CC1CCCCC1)Cc1ccco1)C(C)c1ccccc1 (stereo not drawn) [Compound 911-M20] (Myristoyl-G[NPrGly][X1][Nlys][NFurfurylGly][NCyclohexylmethylGly][Gly(N(CH2)3NH2)]-NH2) | 3.13 (≈ 2.9 µM) | 79.6 ± 5.12 (≈ 73.9 µM) | – | – | 6.25 (≈ 5.8 µM) | – | – | markedly more toxic
11 | CCCCCCCCCCCCCC(=O)NCC(=O)N(CCC)CC(=O)N(CC(=O)N(CCCCN)CC(=O)N(CC(=O)N(CC(=O)N(CCCN)CC(N)=O)Cc1cccs1)Cc1ccco1)C(C)c1ccccc1 (stereo not drawn) [Compound 911-M21] (Myristoyl-G[NPrGly][X1][Nlys][NFurfurylGly][N(2-thienylmethyl)Gly][Gly(N(CH2)3NH2)]-NH2) | 3.13 to 6.25 | 135 ± 52.1 (≈ 125 µM) | – | – | 6.25 (≈ 5.8 µM) | – | – | –
12 | CCCCCCCCCCCCCC(=O)NCC(=O)N(CCC)CC(=O)N(CC(=O)N(CCCCN)CC(=O)N(CC(=O)N(CC(=O)N(CCCN)CC(N)=O)C(C)c1ccccc1)Cc1ccco1)C(C)c1ccccc1 (stereo not drawn) [Compound 911-M22] (Myristoyl-G[NPrGly][X1][Nlys][NFurfurylGly][X1][Gly(N(CH2)3NH2)]-NH2) | 3.13 (≈ 2.88 µM) | 113 ± 41.9 (≈ 104 µM) | – | – | 6.25 (≈ 5.76 µM) | – | – | –
